Assay results from patent publication US20250295776A1, “CLEAVAGE RESISTANT CD16 CONSTRUCTS AND USES THEREOF” (Celularity Inc., priority 2022, published 2025).

Assays:
CD34+ cells [1] = assay: NK cell expansion in 35-day three-stage culture with CRL compounds; format: cell-based, human; conditions: for cell expansion compared to SR1: 10 μM, Day 35; for expansion, differentiation and cytotoxicity profiles compared to SR1: PNK-007 culture
Text: (§1) UCB CD34+ cells were cultivated in presence of cytokines including thrombopoietin, SCF, Flt3 ligand, IL-7, IL-15 and IL-2 for 35 days to produce three-stage NK cells, as described in Example 1. Multi-color flow cytometry was used to determine the phenotypic characteristics of three-stage NK cells.
(§2) For biological testing, the compounds were provided to culture to evaluate their effects on NK cell expansion and differentiation. Specifically, donors of CD34+ cells (StemCell Technology) were thawed and expanded in vitro following NK culture protocol. During the first 14 days of the culture, each CRL compounds was dissolved in DMSO and added to the culture at 10 μM concentration. SR1 (at 10 μM) served as a positive control compound, while DMSO alone without any compound served as a negative control. At the end of the culture on Day 35, cell expansion, natural killer (NK) cell differentiation and cytotoxicity of the cells against K562 tumor cell line were characterized. Due to the large number of the compounds, the testing was performed in two experiments, CRL1-11 and CRL 12-22. The same donors were used for each experiment. Positive and negative controls were also included in both experiments.

CD34+ cells [2] = assay: NK cell differentiation of compound-cultured cells (flow cytometry); format: cell-based, human
Text: as §1, §2

K562 tumor cell line = assay: Cytotoxicity of compound-cultured cells against K562; format: cell-based; conditions: 10:1 E:T ratio
Protocol: as §2
Cytotoxicity assay was run using compound cultured cells against K562 tumor cells at 10:1 effector to target ratio (FIGS. 5A-5B) to evaluate cell functions.

CD34 cells = assay: CD34 cell expansion at Day 14 of the culture with CRL compounds; format: cell-based, human; conditions: 10 μM
Protocol: as §2

CD16 [3] = assay: CD16VP shedding assay (PMA/ionomycin); format: cell-based, human
CD16 [4] = assay: NK surface markers and CD16 expression of PNK-CD16VP cells (flow cytometry, day 35); format: cell-based, human; conditions: n=8
Protocol: Non-transduced PNK cells (NT) served as a control. […] IgG was used as ADCC control. In vivo anti-tumor activity was assessed in a Daudi disseminated Xenograft model in NSG mice. […] Tumor burden in mice was monitored by Bioluminescence Imaging (BLI). Statistical differences between the groups were calculated using paired t-test using Prism.
Cell Expansion and Characterization: Cell expansion was recorded during the culture process.

CD16 [5] = assay: Shedding assay of CD16 variants transduced CYNK cells (PMAi 2 h); format: cell-based, human; conditions: for CD16 shedding percentage: post 2 h PMAi stimulation, n=6 donors, Lentigen LVV
Protocol: Non-transduced (NT) CYNK cells were used as a control. After 2-hour stimulation, cells from each treatment condition were then washed twice with FACS buffer (PBS with 0.5 mM EDTA and 2% FBS) and incubated human Fc block (BD Biosciences, Cat #564220) at room temperature for 10 minutes. Staining was then performed with anti-human CD16 PE (BD Biosciences, Cat #556619), anti-human CD56 APC (BD Biosciences, Cat #555518), and anti-human CD3 APC-H7 (BD Biosciences, Cat #560176), or with the corresponding isotype controls for 30 minutes at 4° C. Following washing 2× with FACS buffer the viability stain 7-Aminoactinomycin D (7-AAD) (BD Biosciences, Cat #559925) was added to all stained samples and incubated for ten minutes prior to data acquisition. The data was acquired on a […] (BD Biosciences, San Jose, CA) and analyzed in FlowJo (Tree Star, Ashland, OR). The data were expressed as % CD56^+CD16+ cells gated under 7-AAD^− cells. Setting of the % positive gate was done using isotype-stained samples as controls.

[6] = tested on: HER2+ NCI-N87 gastric tumor cell line; assay: xCELLigence real time cell analysis ADCC assay with trastuzumab against NCI-N87; format: cell-based; conditions: 4 h and 24 h; E:T ratio of 2:1
Protocol: The HER2^+ NCI-N87 gastric tumor cell line was used as the target cells. CD16 variant transduced CYNK cells were thawed followed by two days recovery were used as the effector cells. […] Target cells were seeded at 8×10^4 cells/well in the 96-well plates in 100 μl assay buffer for 24 hours at 37° C. in 5% CO2. […] CYNK cells were added post 30 minutes antibodies incubation at 37° C. with 5% CO2.
The xCELLigence real time cell analysis (RTCA) system (ACEA Biosciences, San Diego, CA) was used for the determination of the ADCC response mediated by the combination of antibody and effector cells. This system can determine the real time proliferation or cell death in each well of a specialized 96-well plate with electrodes attached to the bottom E-plate by measuring cell adherence as determined by the impedance of the electrical signal that passes through the plate. The more cells that are attached to the bottom of the well the higher the resulting impedance or cell index that is measured. The cell index over time in wells with effector cells, antibody, and target is compared to the cell index in wells with target alone and is converted to a percent cytolysis.
Target cells were incubated with the effector cells in the presence of the antibodies in 200 μl final volume for 24 hours. The xCELLigence software was then used to determine the percent cytotoxicity at 4 and 24 hours of co-culture time.

[7] = tested on: HER2+ NCI-N87 gastric tumor cell line; assay: Cytokine secretion assay (Luminex) of CD16 variants transduced CYNK cells with NCI-N87; format: cell-based
Protocol: Two-day in vitro recovered CYNK cells were used in this assay as the effector cells. The HER2^+ NCI-N87 gastric tumor cell line was used as the target cell. […] The supernatant was then collected after 24 h and used for downstream analysis. The cytokine concentrations were determined by Luminex analysis using a customer selected MILLIPLEX MAP magnetic bead kit (EMD Millipore, Billerica, MA, Cat #HCD8MAG-15K-07 for GM-CSF, TNF-α, and IFN-γ) according to the protocol provided by the manufacturer. The data were analyzed using Belysa software (Millipore Sigma).

CD16 [8] = assay: CD16 expression of CD16 variants transduced CYNK cells (flow cytometry); format: cell-based, human
Protocol: (§3) Human placental CD34+ cells were transduced with a lentivirus vector expressing a CD16 variants as indicated and cultured for 35 days in the presence of cytokines, including thrombopoietin, SCF, Flt3 ligand, IL-7, IL-15 and IL-2, to generate CYNK cells.
The phenotype of CYNK cells was analyzed by multicolor flow cytometry. CYNK cells were washed and stained with fluorochrome-conjugated antibodies diluted in staining buffer [2% fetal bovine serum (FBS) in phosphate buffered saline (PBS)] according to the manufacturer's protocol. Dead cells were labelled with the Live/Dead Fixable Aqua Stain (Invitrogen, Cat #L34957) and gated out. Data were acquired on BD Fortessa X20 flow cytometer (BD Biosciences) and were analyzed using FlowJo software. The data were expressed as % positive cells gated under CD56+CD3-Aqua− single cells based on the viability staining used. Setting of the % positive gate was done using the corresponding isotype-stained samples as controls.

[9] = tested on: human placental CD34+ cells; assay: Fold expansion of CD16 variants transduced CYNK cells; format: cell-based
Text: as §3

[10] = in the presence of Trastuzumab, E:T ratio of 1:1
[11] = in the presence of trastuzumab and NCI-N87
[12] = MOI 200, Myc tag, Sirion Bio LVV

## CC(C)c1csc2c(NCCc3c[nH]c4ccccc34)nc(-c3cncc(C#N)c3)nc12 [CRL17, 5-(4-((2-(1H-indol-3-yl)ethyl)amino)-7-isopropylthieno[3,2-d]pyrimidin-2-yl)nicotinonitrile]
CD34+ cells [1]
  cell expansion compared to SR1: slightly less expansion
CD34+ cells [2]
  CD56+/CD11a+ subpopulation compared to SR1: increased
K562 tumor cell line
  killing activities compared to cells cultured with SR1: increased killing activities

## CC(C)c1csc2c(NCCc3c[nH]c4ccccc34)nc(-c3cncc(F)c3)nc12 [CRL18, N-(2-(1H-indol-3-yl)ethyl)-2-(5-fluoropyridin-3-yl)-7-isopropylthieno[3,2-d]pyrimidin-4-amine]
CD34+ cells [1]
  cell expansion compared to SR1: slightly less expansion
CD34+ cells [2]
  CD56+/CD11a+ subpopulation compared to SR1: increased
K562 tumor cell line
  killing activities compared to cells cultured with SR1: increased killing activities

## Fc1cncc(-c2nc(NCCc3c[nH]c4ccccc34)c3occc3n2)c1 [CRL19, N-(2-(1H-indol-3-yl)ethyl)-2-(5-fluoropyridin-3-yl)furo[3,2-d]pyrimidin-4-amine]
CD34+ cells [1]
  cell expansion compared to SR1: supported cell expansion the best
  expansion, differentiation and cytotoxicity profiles compared to SR1: very similar
CD34 cells
  CD34 cell expansion: achieved the highest CD34 cell expansion

## Cc1cncc(-c2nc(NCCc3c[nH]c4ccccc34)c3occc3n2)c1 [CRL20, N-(2-(1H-indol-3-yl)ethyl)-2-(5-methylpyridin-3-yl)furo[3,2-d]pyrimidin-4-amine]
CD34+ cells [1]
  cell expansion compared to SR1: supported cell expansion the best
  expansion, differentiation and cytotoxicity profiles compared to SR1: very similar
CD34 cells
  CD34 cell expansion: achieved the highest CD34 cell expansion

## Cc1cncc(-c2nc(NCCc3c[nH]c4ccccc34)c3scc(C(C)C)c3n2)c1 [CRL21, N-(2-(1H-indol-3-yl)ethyl)-7-isopropyl-2-(5-methylpyridin-3-yl)thieno[3,2-d]pyrimidin-4-amine]
CD34+ cells [1]
  cell expansion compared to SR1: slightly less expansion
CD34+ cells [2]
  CD56+/CD11a+ subpopulation compared to SR1: increased
K562 tumor cell line
  killing activities compared to cells cultured with SR1: increased killing activities

## N#Cc1cncc(-c2nc(NCCc3c[nH]c4ccccc34)c3occc3n2)c1 [CRL22, 5-(4-((2-(1H-indol-3-yl)ethyl)amino)furo[3,2-d]pyrimidin-2-yl)nicotinonitrile]
CD34+ cells [1]
  cell expansion compared to SR1: supported cell expansion the best
  expansion, differentiation and cytotoxicity profiles compared to SR1: very similar
CD34 cells
  CD34 cell expansion: achieved the highest CD34 cell expansion

## CD16VP: high affinity (158 Val) and proteinase cleavage resistant (197Pro) CD16 variant
CD16 [3]
  CD16VP expression after activation: resistant to shedding
CD16 [4]
  CD16 expression: ~65%
CD16 [5]; 6 donors
  CD16 shedding resistance post PMAi stimulation: Yes
CD16 [5]
  CD16 shedding percentage: 4.3%±3.0%
[6]
  cytotoxicity change (CYNK+Trastuzumab − CYNK+IgG) compared to NT: significant difference
[7]; [10]
  GM-CSF secretion against NCI-N87: 5.4 ± 2.7 ng/1 × 10^6 cells
  IFNg secretion against NCI-N87: 1.8 ± 1.6 ng/1 × 10^6 cells
  TNFa secretion against NCI-N87: 0.8 ± 0.3 ng/1 × 10^6 cells
[7]; [11]
  GM-CSF secretion compared to NT: significant difference
CD16 [8]; 6 donors
  CD16 expression: 61.9% ± 15.4%

## Construct #1: CD16 variant: 176 V (also referred to as 158 V); 197 Glycine (G); with or without Myc tag
CD16 [5]; Myc tag, Sirion Bio LVV
  CD16 shedding post PMAi stimulation: trend of shedding resistance
CD16 [5]
  CD16 shedding percentage: 9.4%±8.5%
[9]; Lentigen LVV, n=6 donors
  fold expansion compared to CD16VP and NT: comparable fold expansion
[9]; Myc tag, Sirion Bio LVV
  fold expansion compared to CD16VP: comparable fold expansion
[6]
  cytotoxicity change (CYNK+Trastuzumab − CYNK+IgG) compared to NT: significant difference
[7]; [11]
  GM-CSF secretion compared to NT: significant difference
  cytokine secretion (IFNg, TNFa and GM-CSF) compared to CD16VP: no significant difference
CD16 [8]; Lentigen LVV, 6 donors
  CD16 expression at Day10, Day35 and post thaw compared to CD16VP: comparable CD16 expression
CD16 [8]; [12]
  CD16 expression at Day10, 21, 28, 35 and 40 compared to CD16VP: comparable CD16 expression
  CD16 expression at Day 10 compared to CD16VP: comparable CD16 expression
